The values below come from patent US12692269B2, “Therapeutic compounds” (Genentech, Inc., priority 2019, dated 2026).

Each structure is given as a SMILES string. pEC50: −log10 of the molar value.

Holding throughout (type): binding
In assay [1] the target is TEAD1 TAZ (amino acids 13-57) (Homo sapiens, UniProt P28347). The experiment in a line: TEAD1-TAZ HTRF (TR-FRET) protein-protein interaction assay. In short, it runs like this:
(§1)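 TEAD YBD (aa 217-447, His-tag) + Eu anti-His; cpd 30 min; + biotin-YAP 50-100 or biotin-TAZ 13-57 / SA-XL665; 60 min RT; TR-FRET 665/615; 4-parameter IC50/EC50.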
For orientation: TR-FRET usually uses a lanthanide donor and a delayed reading to cut background.

The next assay concerns the target TEAD3 YAP50-100 (Homo sapiens, UniProt Q99594). The experiment in a line: TEAD3-YAP HTRF (TR-FRET) protein-protein interaction assay. The note with it: TEAD3, YAP peptide 50-100, HTRF. The gist of the method:
as §1

Assay [2] has as its target TEAD2 TAZ (amino acids 13-57) (Homo sapiens, UniProt Q15562). Briefly: TEAD2-TAZ HTRF (TR-FRET) protein-protein interaction assay. The gist of the method:
as §1

Another assay deals with TEAD1 YAP50-100 (Homo sapiens, UniProt P28347). The experiment in a line: TEAD1-YAP HTRF (TR-FRET) protein-protein interaction assay. The following applies: TEAD1, YAP peptide 50-100, HTRF. The gist of the method: as §1
For assay [3], the target named is TEAD3 TAZ (amino acids 13-57) (Homo sapiens, UniProt Q99594). Briefly: TEAD3-TAZ HTRF (TR-FRET) protein-protein interaction assay. The gist of the method:
as §1

For another assay, the target named is TEAD4 YAP50-100 (Homo sapiens, UniProt Q15561). Briefly: TEAD4-YAP HTRF (TR-FRET) protein-protein interaction assay. The note with it: TEAD4, YAP peptide 50-100, HTRF. In short, it runs like this:
as §1

Assay [4] addresses TEAD4 TAZ (amino acids 13-57) (Homo sapiens, UniProt Q15561). Briefly: TEAD4-TAZ HTRF (TR-FRET) protein-protein interaction assay. The gist of the method: as §1
The next assay has as its target TEAD2 YAP50-100 (Homo sapiens, UniProt Q15562). Briefly: TEAD2-YAP HTRF (TR-FRET) protein-protein interaction assay. The note with it: TEAD2, YAP peptide 50-100, HTRF. In short, it runs like this: as §1

TEAD3 YAP50-100, sequence (Q99594 173-435 limits assumed): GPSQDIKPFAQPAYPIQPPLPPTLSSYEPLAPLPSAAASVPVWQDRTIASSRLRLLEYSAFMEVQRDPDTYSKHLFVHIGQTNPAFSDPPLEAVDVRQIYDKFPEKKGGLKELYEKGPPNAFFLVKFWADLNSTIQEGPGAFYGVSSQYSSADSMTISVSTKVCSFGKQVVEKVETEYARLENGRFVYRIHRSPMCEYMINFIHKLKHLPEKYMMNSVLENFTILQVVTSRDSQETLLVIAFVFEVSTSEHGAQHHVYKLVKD
TEAD3 TAZ (amino acids 13-57), sequence (Q99594 173-435 limits assumed): as above
TEAD1 TAZ (amino acids 13-57), sequence (P28347 167-426 limits assumed): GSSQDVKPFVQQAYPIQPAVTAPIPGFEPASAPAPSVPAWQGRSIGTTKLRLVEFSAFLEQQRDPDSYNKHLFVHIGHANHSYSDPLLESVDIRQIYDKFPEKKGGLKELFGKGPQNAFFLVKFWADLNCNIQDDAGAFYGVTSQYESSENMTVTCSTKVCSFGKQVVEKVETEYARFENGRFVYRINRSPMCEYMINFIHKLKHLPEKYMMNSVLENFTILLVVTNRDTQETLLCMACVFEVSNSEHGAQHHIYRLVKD
TEAD1 YAP50-100, sequence (P28347 167-426 limits assumed): as above
TEAD2 TAZ (amino acids 13-57), sequence (Q15562 217-447): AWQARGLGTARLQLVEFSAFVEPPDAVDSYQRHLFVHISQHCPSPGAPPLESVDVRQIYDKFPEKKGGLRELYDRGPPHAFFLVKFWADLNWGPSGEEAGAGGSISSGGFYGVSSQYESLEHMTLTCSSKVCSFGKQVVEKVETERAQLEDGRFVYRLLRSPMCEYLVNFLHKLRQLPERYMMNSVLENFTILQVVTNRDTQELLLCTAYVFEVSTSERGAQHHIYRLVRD
TEAD2 YAP50-100, sequence (Q15562 217-447): as above
TEAD4 TAZ (amino acids 13-57), sequence (Q15561 217-434 limits assumed): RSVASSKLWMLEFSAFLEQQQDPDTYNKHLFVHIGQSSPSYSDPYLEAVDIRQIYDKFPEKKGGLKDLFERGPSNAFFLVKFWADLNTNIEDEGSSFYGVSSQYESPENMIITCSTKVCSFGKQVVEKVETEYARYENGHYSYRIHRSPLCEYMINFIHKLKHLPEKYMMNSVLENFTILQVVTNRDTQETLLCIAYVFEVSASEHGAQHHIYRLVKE
TEAD4 YAP50-100, sequence (Q15561 217-434 limits assumed): as above

By pEC50 is commonly meant −log10 of the EC50, conventionally taken in molar units. Take `Cc1nccnc1-c1nn2c(=O)cc(-c3ccc(C4CCCCC4)cc3)[nH]c2c1C(=O)N1C[C@@H](CF)[C@H]1C` (single isomer, unassigned) [Isomer A, Example 41]: the “TEAD1 TAZ HTRF combined: Max % Inhibition” value in assay [1] (TEAD1, TAZ peptide, HTRF) came out at 53.5%. Moreover, the pEC50 in assay [1] (TEAD1-TAZ HTRF, TR-FRET 665 nm/615 nm, read-out: TEAD1 TAZ HTRF combined: EC50) is 6.74; on TEAD3 YAP50-100 (read-out: TEAD3 YAP50-100 HTRF combined: EC50), 6.28; in assay [2] (TEAD2-TAZ HTRF, TR-FRET 665 nm/615 nm, read-out: TEAD2 TAZ HTRF combined: EC50) it was 7.30; at TEAD1 YAP50-100 (read-out: TEAD1 YAP50-100 HTRF combined: EC50), 6.82; in assay [3] (TEAD3-TAZ HTRF, TR-FRET 665 nm/615 nm, read-out: TEAD3 TAZ HTRF combined: EC50) it was 6.16; on TEAD4 YAP50-100 (read-out: TEAD4 YAP50-100 HTRF combined: EC50), 5.26. The negative-log EC50 (pEC50) in assay [4] (TEAD4-TAZ HTRF, TR-FRET 665 nm/615 nm, read-out: TEAD4 TAZ HTRF combined: EC50) was 5.31; at TEAD2 YAP50-100 (read-out: TEAD2 YAP50-100 HTRF combined: EC50), 7.22. Moreover, on TEAD3 YAP50-100, the “TEAD3 YAP50-100 HTRF combined: Max % Inhibition” value is given as 74.0%. Besides, in assay [2] (TEAD2, TAZ peptide, HTRF), the “TEAD2 TAZ HTRF combined: Max % Inhibition” value is listed as 35.0%. In addition, at TEAD1 YAP50-100, the “TEAD1 YAP50-100 HTRF combined: Max % Inhibition” value is recorded as 69.0%. Further, the “TEAD3 TAZ HTRF combined: Max % Inhibition” value in assay [3] (TEAD3, TAZ peptide, HTRF) amounted to 70.0%. Moreover, the “TEAD4 YAP50-100 HTRF combined: Max % Inhibition” value at TEAD4 YAP50-100 stood at 51.0%. For the same compound, in assay [4] (TEAD4, TAZ peptide, HTRF), the “TEAD4 TAZ HTRF combined: Max % Inhibition” value turned out to be 51.5%. The “TEAD2 YAP50-100 HTRF combined: Max % Inhibition” value at TEAD2 YAP50-100 came out at 26.0%.
